This is an account of results in US20120010264A1, “NOVEL MEDICAMENT FOR TREATING COGNITIVE IMPAIRMENT” (Dainippon Sumitomo Pharma Co., Ltd., priority 2009, published 2012).

The term half-life denotes the time in which the quantity being followed falls by half. A higher half-life goes with slow decline.

Like-named read-outs stand apart in the source and are kept apart here.

Data set [1] deals with LPS-induced cognitive impairment mouse. In words: LPS-induced cognitive impairment model, Y-maze test (alternation behavior). Type of data set: in vivo. The following applies: LPS i.c.v., percentage of alternation behavior in Y-maze. How it is done: It is known that lipopolysaccharide (LPS) can experimentally induce an inflammatory condition in brain like in Alzheimer's dementia patients. Thus, LPS-induced model is thought as a good disease model to study cognitive impairment caused by inflammation in Alzheimer's dementia (Neurosci. Res., 61, 113, 2008).
In Example 4-2, 5 μg of LPS (Eschenchia coli 055:B5, SIGMA) was intracerebroventricularly administered to a mouse (Slc:ddY mouse, 4 weeks old, male, Japan SLC, Inc.) in both ventricles, i.e. 2.5 μl of 1 mg/ml LPS was administered to each ventricle. LPS induced cognitive impairment in Y-maze test was appeared 4 days after treatment. (i.e. decrease of alternation behavior). Compound A (10, 30, 100 mg/kg, p.o., n=14-16) or rosiglitazone (1, 3, 10 mg/kg, p.o., n=8) was administered 30 minutes before the LPS administration, and 1, 2, 3 days after the LPS administration, and also 1 hour before the Y-maze test to evaluate the effect for improving cognitive function. 0.5% Methylcellulose solution was used as a solvent of each compound.

Data set [2] is described as follows: Brain delivery property: brain tissue and plasma concentration after oral administration. The following applies: female, 10 mg/kg oral, one portion, C57BL/6J mouse; for Kp: brain and plasma, read-out: Kp value (brain/plasma AUC0-6 hr ratio); for half-life / AUC(0-t): non-fasting; for AUC(0-t): read-out: AUC0-6 hr. Format: in vivo. How it is done: Method: Compound A or rosiglitazone (10 mg/kg) was orally administered in one portion to a mouse (C57BL/6J: female, 11 weeks old, 3 mice at each measuring point) under non-fasting condition. Its brain tissue and plasma were sequentially sampled for 6 hours after the administration to measure the concentration of the administered-compound. Based on each mean value of the concentrations in its brain tissue and plasma measured at several time points, each elimination half-life (t1/2) and area under the curve (AUC0-6hr) of the administered-compound were calculated.

Data set [3] concerns rats with scopolamine-induced cognitive impairment. Briefly: Scopolamine-induced cognitive impairment model, passive avoidance test. Format: in vivo, rat. The conditions noted are these: for Step-through latency: scopolamine 0.5 mg/kg i.p., rat, mean ± standard error, n = 11, up to 300 seconds. An excerpt: It is known that scopolamine is a muscarinic acetylcholine receptor antagonist which causes memory impairment in animals and human. Thus, in order to evaluate the efficacy of an anti-Alzheimer's drug, a scopolamine-induced cognitive-impairment model is used in many evaluation tests of cognitive function including a passive avoidance test (Eur. J. Pharmacol., 383, 231, 1999). In Example 6, the effect of Compound A and rosiglitazone on cognitive function was studied using a passive avoidance test using rats with scopolamine-induced cognitive impairment.
Compound A (3, 10, 30 mg/kg) or rosiglitazone (1, 3, 10 mg/kg) was orally administered to a rat 60 minutes before training for the passive avoidance test. Scopolamine (0.5 mg/kg) or saline was intraperitoneally administered 30 minutes before the training. In the training period, the rat was put in a bright compartment and was allowed to explore for 10 seconds. Then, a door between the bright compartment and the dark one was opened, and as the rat went into the dark compartment, the door was closed. Three seconds later, the rat was given electroconvulsive shock (0.5 mA, 3 seconds). The passive avoidance response test was carried out 24 hours after the training. The rat was put in the bright compartment and was monitored to record the time that the rat stayed in the bright compartment (step-through latency) for up to 300 seconds. Dunnett's multiple comparison test (two-sided significance level 5%) was carried out to compare the step-through latency between the scopolamine treatment group and the scopolamine+test medicament treatment group. […] 0.5% Methylcellulose solution was used as a solvent of each compound.

Data set [4] in a line: Fluid retention as side effect: hematocrit level in high-fat diet obese diabetes mice. The following applies: for Hematocrit level: high-fat diet mouse; for Effect on hematocrit level in mice (summary of Example 5): dose not stated.
A further data set has as its system scavenger receptor CD36. In words: CD36 transcription level in microglial cells by real-time RT-PCR. Type of data set: cell-based. The following applies: 0.5 μM, 24 hours, neonatal rat microglial cells. The method, then:
Microglial cells derived from neonatal rats (Sumitomo Bakelite) were cultured for 24 hours in a culture medium containing Compound A (0.5 μM or 5 μM). Then, total RNA was extracted from the cells, and therewith the transcription levels of scavenger receptor CD36 and glyceraldehyde-3-phosphate dehydrogenase (GAPDH) were measured by real-time RT-PCR to calculate the CD36 transcription level as a value relative to the GAPDH transcription level. In order to compare the CD36 transcription levels treated in the different conditions, CD36 transcription level in the control that was cultured for 24 hours with only DMSO which was used as a solvent in the above cultivation of Compound A was measured, and then the relative ratio of each CD36 transcription level of Compound A per that of the control (=1) was calculated.

The conditions of data set [5]: mouse, in vivo.
The conditions of data set [6]: post-marketing surveillance; cited from earlier work.
Where [7] appears, read: 3 mg/kg oral once a day for 8 weeks.
Setting [8] is: 10 mg/kg oral once a day for 8 weeks.

As for `Cc1ccc(C(=O)c2cccn2C/C=C/c2ccc(COC(C)(C)C(=O)O)cc2)cc1` [Compound A, 2-Methyl-2-[(4-{(1E)-3-[2-(4-methylbenzoyl)-1H-pyrrol-1-yl]prop-1-en-1-yl}benzyl)oxy]propionic acid], the Alternation behavior in data set [1] (10 mg/kg p.o.) amounted to 66.5 ± 2.8. For the same compound, in data set [2], the Kp was determined as 0.154. Moreover, the half-life is 4.26 h in data set [2] (brain) and 4.59 h in data set [2] (plasma). The AUC(0-t) in data set [2] (brain) was 1.5 µg·h/mL; in data set [2] (plasma) it was 9.71 µg·h/mL. In addition, the Step-through latency in data set [3] (3 mg/kg p.o.) is 162.5 ± 28.2 s. For the same compound, the “Effect on cognitive function (step-through latency)” value in data set [3] (single oral administration 3-30 mg/kg, scopolamine rat) was “improved cognitive function in a dose-dependent manner”. The Hematocrit level is 47.7 ± 2.0% in data set [4] (setting [7]), 48.7 ± 1.2% in data set [4] (setting [8]) and 48.7 ± 1.5% in data set [4] (30 mg/kg oral once a day for 8 weeks). Moreover, the “Effect on hematocrit level in mice (summary of Example 5)” value (“Effect on hematocrit level in mice” below) in data set [4] is listed as “did not significantly affect”. For the same compound, the “CD36 transcription level relative to GAPDH, ratio per DMSO control (=1)” value with scavenger receptor CD36 was 1.44.
`CCc1ccc(CCOc2ccc(CC3SC(=O)NC3=O)cc2)nc1` (stereo not drawn) [pioglitazone]: the “Effect on hematocrit level in mice” value in data set [5] is “decreased”.
For the compound `CN(CCOc1ccc(CC2SC(=O)NC2=O)cc1)c1ccccn1` (stereo not drawn) [Rosiglitazone, rosiglitazone], the Alternation behavior was determined as 68.4 ± 5.0 in data set [1] (1 mg/kg p.o.), 71.9 ± 4.1 in data set [1] (3 mg/kg p.o.) and 73.4 ± 2.7 in data set [1] (10 mg/kg p.o.). The Kp in data set [2] was 0.0451. Further, the half-life in data set [2] (brain) is 1.06 h; in data set [2] (plasma), 1.26 h. Moreover, the AUC(0-t) was 1.82 µg·h/mL in data set [2] (brain) and 40.4 µg·h/mL in data set [2] (plasma). For the same compound, in data set [6], the “Frequency of fluid retention (peripheral edema)” value is reported as “high”. Further, the Step-through latency stood at 144.8 ± 28.3 s in data set [3] (1 mg/kg p.o.), 164.5 ± 33.1 s in data set [3] (3 mg/kg p.o.) and 170.7 ± 30.2 s in data set [3] (10 mg/kg p.o.). Also, the Hematocrit level in data set [4] (0.1 mg/kg oral once a day for 8 weeks) stood at 47.4 ± 1.9%; in data set [4] (0.3 mg/kg oral once a day for 8 weeks), 46.6 ± 1.9 %; in data set [4] (1 mg/kg oral once a day for 8 weeks), 45.6 ± 0.9 %; in data set [4] (setting [7]), 44.7 ± 1.5 %; in data set [4] (setting [8]), 41.1 ± 4.9 %. Also, the “Effect on hematocrit level in mice” value in data set [4] is given as “decreased”. For the same compound, the “Change of hematocrit level vs solvent” value in data set [4] (dose of 0.3 mg/kg or more, oral once a day for 8 weeks) is “significantly decreased”.
